Assay results taken from patent EP1268487B1, “TRICYCLIC PROTEIN KINASE INHIBITORS” (Wyeth, priority 2000, dated 2001).

Columns and labels:
[1] = biological target: T1, Epidermal Growth Factor Receptor Kinase (EGF-R) (Homo sapiens, UniProt P00533); test: Inhibition of Epidermal Growth Factor Receptor Kinase (EGF-R) using recombinant enzyme; type: biochemical
T1 construct: containing the EGFR cDNA encoding amino acids 645 - 1186 preceded by Met-Ala-(His)6; Met-Ala-(His)6 (N); made in house; host or cells: Sf9 insect cells (baculovirus vHcEGFR52)
Experimental: Representative test compounds were evaluated for their ability to inhibit the phosphorylation of the tyrosine residue of a peptide substrate catalyzed by the enzyme epidermal growth factor receptor kinase. The peptide substrate (RR-SRC) has the sequence arg-arg-leu-ile-glu-asp-ala-glu-tyr-ala-ala-arg-gly. The enzyme used in this assay is the His-tagged cytoplasmic domain of EGFR. A recombinant baculovirus (vHcEGFR52) was constructed containing the EGFR cDNA encoding amino acids 645 - 1186 preceded by Met-Ala-(His)6. Sf9 cells in 100 mm plates were infected at an moi of 10 pfu/cell and cells were harvested 48 hours post infection. A cytoplasmic extract was prepared using 1% Triton X-100 and applied to Ni-NTA column. After washing the column with 20 mM imidazole, HcEGFR was eluted with 250 mM imidazole (in 50 mM Na2HPO4, pH 8.0, 300 mM NaCl). Fractions collected were dialyzed against 10 mM HEPES, pH 7.0, 50 mM NaCl, 10% glycerol, 1µg/mL antipain and leupeptin and 0.1 mM Pefabloc SC. The protein was frozen in dry ice/methanol and stored -70° C.
Test compounds were made into 10 mg/mL stock solutions in 100% dimethylsulfoxide (DMSO). Prior to experiment, stock solutions were diluted to 500 µM with 100% DMSO and then serially diluted to the desired concentration with HEPES buffer (30 mM HEPES pH 7.4).
For the enzyme reaction, 10 µL of each inhibitor (at various concentrations) were added to each well of a 96-well plate. To this was added 3 µL of enzyme (1:10 dilution in 10mM HEPES, pH 7.4 for final conc. of 1:120). This was allowed to sit for 10 minutes on ice and was followed by the addition of 5 µl peptide (80 uM final conc.), 10µl of 4X Buffer (Table A), 0.25 µL ^33P-ATP and 12 µL H2O. The reaction was allowed to run for 90 minutes at room temperature and was followed by spotting the entire volume on to precut P81 filter papers. The filter discs were washed 2X with 0.5% phosphoric acid and radioactivity was measured using a liquid scintillation counter. Table A
The inhibition data for representative compounds of the invention are shown below in TABLE 1. The IC50 is the concentration of test compound needed to reduce the total amount of phosphorylated substrate by 50%. The % inhibition of the test compound was determined for at least three different concentrations and the IC50 value was evaluated from the dose response curve. […] CPM(control) is in units of counts per minute and was a number expressing the amount of radiolabeled ATP (γ-^33P) incorporated into the RR-SRC peptide substrate by the enzyme after 90 minutes at room temperature in the absence of test compound as measured by liquid scintillation counting. The CPM values were corrected for the background counts produced by ATP in the absence of the enzymatic reaction. Where it was possible to determine an IC50 value, this is reported in TABLE 1 otherwise the % inhibition at 0.5 µM concentration of test compound is shown in TABLE 1.

Raf-1 (c-Raf) = biological target: T2, Raf-1 (c-Raf) (Homo sapiens, UniProt P04049); test: Raf-1 kinase cascade assay; type: biochemical
T2 construct: Sf9 insect cell lysate containing full length 6his-tagged recombinant human c-Raf; 6his; host or cells: c-Raf: Sf9 insect cell lysate; MEK1 and MAPK: E. coli
Experimental: (Specific Activity: ∼200U/ml). Human Non-active Mek-1-GST and human GST-MAP kinase (recombinant proteins produced in E. coli ). • Stock Solutions c-Raf Assay: • 1. Assay Dilution Buffer (ADB): 20mM MOPS, pH 7.2, 25mM β-glycerol phosphate, 5mM EGTA, 1mM sodium orthovanadate, 1mM dithiothreitol. • 2. Magnesium/ATP Cocktail: 500µM cold ATP and 75 mM magnesium chloride in ADB. • 4. Active Kinase: Human Active c-Raf: Use at 0.4U per assay point. • 5. Non-active GST-MEK1: Use at 0.1µg per assay point. • 6. Non-active GST-p42 MAP Kinase: Use at 1.0 µg per assay point. • Stock Solutions ELISA: • 1. TBST - Tris (50 mM, pH 7.5), NaCl ( 150 mM), Tween-20 (0.05 %) • 2. Superblock (Pierce) • 3. Anti-GST Ab (Pharmacia) • 4. Anti-Phospho MAPK (Sigma) • 5. Anti-Mouse Ab / Europium conjugate (Wallac) • Assay Procedure: • First Stage: c-Raf Dependent Activation of GST-MEK and GST-MAPK • 1. Add […] of ADB per assay (i.e. per well of a 96 well plate) • 2. Add 10 ml of 0.5 mM cold ATP and 75 mM magnesium chloride in ADB. • 3. Add 2 ml of c-Raf (0.4U/assay), in conjunction with 1.6ml non-active MEK1 ([…]). • 4. Add 4 ml of non-active GST-p42 MAP Kinase ([…]). • 5. Incubate for 60 minutes at 30°C in a shaking incubator. • 6. Transfer this mixture to an anti-GST Ab coated 96 well plate (Nunc Immunosorb plates coated o/n with a-GST, then blocked with Pierce Superblock). • 7. Incubate for 60 minutes at 30°C in a shaking incubator • 8. Wash 3X with TBST, add Anti-Phospho MAPK (Sigma) (1:3000) • 9. Incubate for 60 minutes at 30°C in a shaking incubator • 10. Wash 3X with TBST, add Anti-Mouse Ab / Europium conjugate (Wallac) (1:500) • 11. Incubate for 60 minutes at 30°C in a shaking incubator • 12. Wash 3X with TBST, Read plates in Wallac Victor model Plate Reader. • 13. Collect data analyze in Excel for single point and IC50 determinations.
Typically Raf-1 assay is run at compound concentrations from 10 µM to 30 nM in half log dilutions. (% inhibition is determined for each compound concentration).

T2 sequence (P04049 whole entry): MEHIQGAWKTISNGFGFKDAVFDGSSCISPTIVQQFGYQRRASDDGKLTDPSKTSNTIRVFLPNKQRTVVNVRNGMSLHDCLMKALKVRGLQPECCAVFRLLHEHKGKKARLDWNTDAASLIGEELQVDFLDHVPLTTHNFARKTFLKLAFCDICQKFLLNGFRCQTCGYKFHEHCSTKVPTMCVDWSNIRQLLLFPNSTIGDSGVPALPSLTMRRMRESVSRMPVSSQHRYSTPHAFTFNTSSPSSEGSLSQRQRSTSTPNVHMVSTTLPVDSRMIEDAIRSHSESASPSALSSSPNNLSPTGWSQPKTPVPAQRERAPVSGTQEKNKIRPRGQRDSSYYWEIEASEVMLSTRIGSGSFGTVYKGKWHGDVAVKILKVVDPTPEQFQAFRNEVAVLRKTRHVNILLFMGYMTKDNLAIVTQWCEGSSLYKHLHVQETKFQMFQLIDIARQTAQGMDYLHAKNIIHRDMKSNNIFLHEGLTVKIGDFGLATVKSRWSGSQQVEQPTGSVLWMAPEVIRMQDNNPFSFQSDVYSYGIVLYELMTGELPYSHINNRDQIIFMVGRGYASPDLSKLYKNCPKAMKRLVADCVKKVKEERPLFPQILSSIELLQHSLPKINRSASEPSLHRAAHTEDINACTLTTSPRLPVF
T1 sequence (P00533 669-1210): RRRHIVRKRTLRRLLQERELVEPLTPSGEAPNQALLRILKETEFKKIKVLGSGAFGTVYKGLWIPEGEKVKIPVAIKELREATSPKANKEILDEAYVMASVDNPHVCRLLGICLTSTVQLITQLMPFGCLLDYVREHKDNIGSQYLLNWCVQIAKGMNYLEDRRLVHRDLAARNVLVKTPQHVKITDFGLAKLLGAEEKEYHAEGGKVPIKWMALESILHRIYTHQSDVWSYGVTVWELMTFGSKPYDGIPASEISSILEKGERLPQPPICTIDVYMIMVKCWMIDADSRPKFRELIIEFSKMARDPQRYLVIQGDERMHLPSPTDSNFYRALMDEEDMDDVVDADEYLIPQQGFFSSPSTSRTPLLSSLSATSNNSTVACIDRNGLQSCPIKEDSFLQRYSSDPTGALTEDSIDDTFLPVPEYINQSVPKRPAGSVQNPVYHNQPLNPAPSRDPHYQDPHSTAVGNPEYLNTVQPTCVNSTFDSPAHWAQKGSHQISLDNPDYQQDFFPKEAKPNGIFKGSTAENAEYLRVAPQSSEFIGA

N#Cc1cnc2cc3c(cc2c1Nc1ccc(F)c(Cl)c1)NCCO3 [Example 7, 9-(3-Chloro-4-fluoroanilino)-2,3-dihydro-1H-[1,4]oxazino[3,2-g]quinoline-8-carbonitrile]
inhibition at 0.5 µM ([1]; 0.5 µM concentration of test compound): 35.5%
IC50 ([1]; recombinant enzyme): 1000 nM
inhibition at 0.03 µg/mL (Raf-1 (c-Raf); dose 0.03 µg/mL): -5%
inhibition at 0.1 µg/mL (Raf-1 (c-Raf); dose 0.1 µg/mL): 2%
inhibition at 0.3 µg/mL (Raf-1 (c-Raf); dose 0.3 µg/mL): 8%
inhibition at 1 µg/mL (Raf-1 (c-Raf); dose 1.0 µg/mL): 16%
inhibition at 3 µg/mL (Raf-1 (c-Raf); dose 3.0 µg/mL): 68%
inhibition at 10 µg/mL (Raf-1 (c-Raf); dose 10.0 µg/mL): 90%
